# Assay results as given in patent US20230124374A1, “COMPOSITIONS AND METHODS FOR EYE HEALTH COMPRISING VERY LONG CHAIN FATTY ACIDS” (BAUSCH + LOMB IRELAND LIMITED, priority 2020, published 2023).
# Key:
# [1] = phospholipid analysis of retina and RPE by LC-MS/MS after 15 days of gavage feeding; assay type: in vivo, WT mice; settings: 15 days gavage, 2 mg/day, supplemented WT animals
# Protocol: FIGS. 3A and 3B show phospholipid analysis of wild type (WT) mice after 15 days of gavage feeding of VLCPUFA 32:6n-3 (2 mg/day): (3A) Retina and (3B) RPE. Data presented as mean±SEM (n=8 mice/group) (p values: *p<0.05; N.S.: not significant; N.D.: not detectable).
# (§1) Retina and RPE were extracted for phospholipid analysis using liquid chromatography-tandem MS (LC-MS/MS), and increases in phosphatidylcholine (PC)-22:6/32:6 were detected in the retina and RPE in the supplemented WT animals (FIGS. 3A and 3B). Retinal and RPE 32:6 n-3 levels in the E4cKO mice were one-third and one-half of the levels in the age-matched WT mice, respectively (FIG. 4A).
# [2] = single-dose bioavailability study, gavage feeding of 32:6 n-3 loaded liposomes, GC-MS of tissue lipids; assay type: in vivo, wild-type (WT) C57BL/6J mice
# Protocol: FIGS. 1A and 1B show wild-type (WT) mice single-dose bioavailability studies: (1A) Serum absorption kinetics of C32 acid (6n-3) (“32:6n-3”) after single-dose gavage feeding of 6 mg/mouse (n=4 mice/time point) and (1B) retina and RPE uptake of 32:6 n-3 after single-dose gavage feeding. No VLCPUFAs were detected in liver, brain, or RBC membranes at any time point. Data are presented as mean±SEM (***P<0.005; **P<0.01; *P<0.05).
# Three month old wild-type (WT) C57BL/6J mice (22±3 g) were each gavage fed 6 mg per day of C32 acid (6n-3) (“32:6 n-3”) loaded VLCPUFA liposomes (0.1 mL) (250 mg/kg body weight) prepared as disclosed in Gorusupudi et al. PNAS 118(6), e2017739118 (2021), which is incorporated herein by reference in its entirety. The mice were killed 0, 2, 4, 8, and 24 h after gavage (n=4 mice/time interval) to harvest the blood and other tissues. Eyes were dissected under a microscope to separate the retina from the RPE. One pair of retinas/mouse was used for lipid extraction, and blood was centrifuged for 5 minutes at 7,500 rpm to separate serum from RBCs. Serum, RBCs, brain, liver, retina, and RPE were used for lipid extractions and GC-MS analysis.
# (§2) On the other hand, 32:6 n-3 remained undetectable in liver, brain, and red blood cell (RBC) membranes throughout the 24 h period. Longer-term absorption was studied by gavage feeding VLCPUFA-loaded liposomes (0.1 mL) to WT (22±3 g) and conditional KO mice developed with an intention to ablate Elov14 expression completely in both rods and cones (E4cKO mice) (23±3 g) for 15 d with 0, 1, and 2 mg/d 32:6 n-3 (n=6 mice/group). Mice were fed each morning with liposomes prepared as above containing 0 mg/d (0 mg/kg BW), 1 mg/d (40 mg/kg BW), or 2 mg/d (80 mg/kg BW) of 32:6 n-3. Mice were killed at the end of the experiments, and retina, RPE, liver, serum, RBCs, and brain tissues were harvested, extracted for lipids, and analyzed by GC-MS.
# [3] = long-term uptake of 32:6 n-3 in Elov14 rod-cone conditional KO mice, 15 d gavage feeding; assay type: in vivo, E4cKO mice; settings: 2 mg/d
# Protocol: FIGS. 4A and 4B show long-term uptake of 32:6n-3 (2 mg/d per mouse) in Elov14 rod-cone conditional KO (E4cKO) mice: (4A) Accumulation of 32:6 n-3 in E4cKO mouse retinas and RPE in comparison to age-matched WT mice after 15 d of gavage feeding (n=6 mice/group) and (4B) Accumulation of 32:6n-3 in liver and RBCs in E4cKO mice in comparison to age-matched WT mice after 15 d of gavage feeding. Data are presented as mean±SEM (**P<0.01; N.S.: not significant; N.D.: not detectable).
# as §2, §1
# [4] = repeated-dose (15 d) bioavailability study, gavage feeding of 32:6 n-3 loaded liposomes, GC-MS of tissue lipids; assay type: in vivo, WT mice; settings: 15 d gavage
# Protocol: FIGS. 2A and 2B show WT mice repeated-dose bioavailability studies: (2A) Accumulation of 32:6 n-3 in mouse retina and RPE after 15 d of gavage feeding (n=6 mice/group) and (2B) Bioaccumulation of 32:6n-3 in serum, RBC, and liver after 15 d of gavage feeding. […] Data are presented as mean±SEM (***P<0.005; **P<0.01; N.S.: not significant; N.D.: not detectable).
# as §2
# [5] = levels as high as 800.0 mg; cited from earlier work
# [6] = single gavage dose 6 mg/mouse, 4 to 8 h after gavage
# [7] = single gavage dose 6 mg/mouse, throughout the 24 h period
# [8] = versus undetectable levels at 0 mg/d
# [9] = 32:6 n-3-fed groups versus control mice (undetectable)
compound,measurement,setting,value
"CC/C=C\C/C=C\C/C=C\C/C=C\C/C=C\C/C=C\CCCCCCCCCCCCC(=O)O [32:6 n-3, C32 acid (6n-3)]",phosphatidylcholine (PC)-22:6/32:6 in the RPE,[1],increases
same,phosphatidylcholine (PC)-22:6/32:6 in the retina,[1],increases
same,time after oral administration at which serum 32:6 n-3 became detectable,"[2]; single gavage dose 6 mg/mouse (250 mg/kg), serum",≤ 2 h
same,32:6 n-3 in the RPE,[2]; [6],significant increase
same,32:6 n-3 in the retina,[2]; [6],significant increase
same,serum 32:6 n-3 concentration course,"[2]; single gavage dose 6 mg/mouse, serum, over the next 24 h",reached a lower steady-state concentration
same,32:6 n-3 in brain,[2]; [7],undetectable
same,32:6 n-3 in liver,[2]; [7],undetectable
same,32:6 n-3 in red blood cell (RBC) membranes,[2]; [7],undetectable
same,increase of 32:6 n-3 level in the retina relative to control-fed E4cKO mice,"[3]; 8-mo-old E4cKO mice, P<0.01",nearly fivefold increase
same,increase of 32:6 n-3 level in the RPE relative to control-fed E4cKO mice,"[3]; 8-mo-old E4cKO mice, P=0.001",27 fold
same,total retinal VLCPUFAs,[3]; E4cKO mice,0.088±0.02%
same,RBC 32:6 n-3,[3]; [8],became detectable
same,liver 32:6 n-3,[3]; [8],became detectable
same,VLCPUFAs in the brain,[4],no VLCPUFAs were ever detectable
same,total retinal VLCPUFAs,[4]; 1 mg/d group,0.535±0.06%
same,total retinal VLCPUFAs,[4]; 2 mg/d group,0.872±0.10%
same,32:6 n-3 in the liver,[4]; 2 mg/d group (only group with detectable levels),detectable
same,RBC VLCPUFAs,[4]; [9],significantly increased
same,serum VLCPUFAs,[4]; [9],significantly increased
same,increase of C32 acid (6n-3) level in RPE versus 0 mg/d controls,[4]; both fed groups (1 and 2 mg/d),sevenfold
same,increase of C32 acid (6n-3) level in the retina versus 0 mg/d controls,[4]; both fed groups (1 and 2 mg/d),more than twofold
vitamin E,adverse effects,[5],No adverse effects
